Source: patent US20250214996A1, “SALTS AND SOLID FORMS OF AN ESTROGEN RECEPTOR ANTAGONIST” (Olema Pharmaceuticals, Inc., priority 2022, published 2025)
≈ marks a conversion by molar mass, not a printed value. Where “and” joins values, the source holds several entries; their conditions need not be identical. Identical values can stand only once.

Legend:
[1] = Dynamic vapor sorption (DVS) hygroscopicity; format: physicochemical; conditions: for Form Change after DVS?: XRPD before and after DVS; for Hygroscopicity (%)* (class): based on water uptake at 25° C./80% RH; for Hygroscopicity (%)* (water uptake): water uptake at 25° C./80% RH
Description: Dynamic Vapor Sorption (DVS) was measured by a SMS (Surface Measurement Systems) DVS Intrinsic. Parameters for DVS test are listed below:
Alternatively, DVS was performed using Intrinsic DVS ([…], UK). About 30-50 mg of sample was placed in a sample basked and hung in the measuring chamber. For an isotherm test, the chamber temperature is maintained by a water bath at a constant 25±1° C. The sample was tested at a targeted RH from 0 to 90% full cycle in step mode. The analysis was performed in 10% RH increments. Time duration at each RH was set as 60 min so that the sample could reach equilibrium with the chamber environment. Data were collected in 20 s increments.
A DVS isotherm plot was collected at 25° C. to investigate the solid form stability as a function of humidity. For Compound 1 Fumarate Form A Anhydrate, solids were pre-equilibrated at 0% RH to remove the unbounded solvent or water before the hygroscopicity experiment was started.

[2] = Solubility by gravimetric method; format: physicochemical; conditions: H2O, 25° C.
Description: Solubility studies of Compound 1 and Compound 1 Fumarate in different solvents at 25° C. were performed. Solubility was measured by the dynamic method and gravimetric method.
Gravimetric method: Excess solids and a certain amount of solvent were added 8 mL vials, stirred for 24 hours, and filtered.

[3] = Bulk density in graduated cylinder; format: physicochemical
Description: Bulk density of Compound 1 Fumarate Form E was measured by gently introducing a known sample mass into a graduated cylinder (50 mL), leveling the powder without compacting it, and recording the apparent untapped volume to the nearest graduated unit.

[4] = Competitive slurry of Fumarate Form E and Fumarate Form A Anhydrate (XRPD); format: physicochemical
Description: Competitive slurry experiments were performed with Compound 1 Fumarate Form E and Compound 1 Fumarate Form A Anhydrate, as follows:
Experiment #1: Compound 1 Fumarate Form E (100 mg), Compound 1 Fumarate Form A Anhydrate (100 mg), and isopropanol (2 mL) were added into two 8-mL vials and mixed well in a shaker at 25° C. and 40° C., respectively. Samples for analysis were taken at 24 h and 72 h.
Experiment #2: Compound 1 Fumarate Form E (100 mg), Compound 1 Fumarate Form A Anhydrate (100 mg), and water (2 mL) were added into two 8-mL vials and mixed well in a shaker at 25° C. and 40° C., respectively. Samples for analysis were taken at 24 h and 72 h.
Experiment #3: Compound 1 Fumarate Form E (100 mg), Compound 1 Fumarate Form A Anhydrate (100 mg), and ethyl acetate (2 mL) were added into two 8-mL vials and mixed well in a shaker at 25° C. and 40° C., respectively. Samples for analysis were taken at 24 h and 72 h.

[5] = Solubility by dynamic method; format: physicochemical
Description: […] Solubility was measured by the dynamic method and gravimetric method.
Dynamic method: Under the condition of a certain amount of solute and certain temperature, solvent was gradually added with stirring for 15 min to reach equilibrium. When solute is completely dissolved, amount of solvent was recorded and the solubility calculated.

[6] = Stability in oven at 60° C. for two weeks; format: physicochemical; conditions: for HPLC Purity (%) Starting: before storage; for XRPD: form after oven at 60° C. for two weeks; for HPLC Purity (%) 60° C. / HPLC Purity (%) Degradation / stability relative to Amorphous Compound 1: oven at 60° C. for two weeks
Description: Amorphous Compound 1, Compound 1 Fumarate Form E, and Compound 1 Fumarate Form A Anhydrate were placed in an oven at 60° C. for two weeks to evaluate their stability.

[7] = Solid form change on heating (XRPD); format: physicochemical
[8] = Kinetic solubility estimate, solvent aliquot addition, visual observation; format: physicochemical; conditions: thermodynamic from solid, amorphous Compound 1, read-out: Solubility
Description: A polymorph screen was conducted using amorphous Compound 1. To help design the experiments, kinetic solubilities of the compound were estimated. The estimation was done using a solvent aliquot addition method, and dissolution was judged by visual observation. In Table 14, solvent ratios (v/v) are approximate; values are rounded to nearest whole number. If complete dissolution was achieved by one aliquot addition, solubilities were reported as “>”; if […], solubilities were reported as “<”. The actual solubility may be larger than the value calculated due to the use of solvent aliquots that were too large or due to a slow rate of dissolution.
A polymorph screen was conducted using Compound 1 Fumarate Form A Ethyl Acetate Solvate. The screen consisted primarily of long term slurry experiments. To help design screen experiments, kinetic solubilities of Fumarate Form A Ethyl Acetate Solvate were estimated. The estimation was done on a 3-11 mg scale using a solvent aliquot addition method, and dissolution was judged by visual observation. Solubilities are estimated at ambient temperature and reported to the nearest mg/mL; if complete dissolution was achieved by one aliquot addition, solubilites were reported as […]

[9] = Pharmacokinetic study in Beagle dogs, oral capsule; format: in vivo
Description: Compound 1 […] in two different forms was administered orally (PO) to male and female Beagle dogs. Blood was serially collected up to 144 hours post dose for determination of plasma pharmacokinetic analysis.
Animals were healthy at the start of the study and were between 1 and 6.5 years of age. Initial body weights were recorded at the start of the study and general health observations were recorded at each blood collection time point.
Each Group contained 3 male and 1 female dog. Capsules were administered by placing the capsule to the back of the throat, followed by a 10 mL flush with drinking water.
Plasma concentrations of Compound 1 were determined by LC-MS/MS. Pharmacokinetic parameters were determined using Phoenix WinNonlin (v8.0) non-compartmental analyses.

[10] = Water solubility at RT, 24 hours, HPLC/pH/XRPD; format: physicochemical
Description: The HPLC method used for solubility measurements is summarized below:
Water solubility was measured in water at RT to evaluate solubility and disproportionation risk. […] After centrifugation, supernatants were collected for HPLC and pH tests, and wet cakes were collected for XRPD characterization.

[11] = Slurry in isopropanol for 1 day (XRPD); format: physicochemical
[12] = ethyl acetate, 72 h at 25° C. or 40° C.
[13] = isopropanol, 24 h at 25° C. or 40° C.
[14] = water, 72 h at 25° C. or 40° C.
[15] = both sexes, dog, dose 5.34 mg/kg (Group 1), 7.4 mg/kg (Group 2), plasma

CCCN1CC(Oc2ccc([C@@H]3c4[nH]c5ccccc5c4C[C@@H](C)N3CC(C)(C)F)cc2)C1.O=C(O)/C=C/C(=O)O [Compound 1 Fumarate Form E]
hygroscopicity by DVS ([1]; DVS): not hygroscopic | Solubility [2]: 1000 µg/mL | Bulk Density (g/mL), Average ([3]; average of three runs): 0.1239 g/mL | Bulk Density ([3]; untapped, runs 1-3): 0.1288 g/mL and 0.1233 g/mL and 0.1196 g/mL | competitive slurry outcome (XRPD) [4, 12]: a mixture of Compound 1 Fumarate Form E and Compound 1 Fumarate Form A Anhydrate remained | competitive slurry outcome (XRPD) [4, 13]: more stable than Form A in isopropanol | competitive slurry outcome (XRPD) [4, 14]: a mixture of Compound 1 Fumarate Form E and Compound 1 Fumarate Form A Anhydrate remained | Solubility ([5]; Dynamic, IPA/heptane (1/1), 25° C.): ~2350 µg/mL | Solubility ([5]; Dynamic, IPA/heptane (1/3), 25° C.): <1000 µg/mL | Solubility ([5]; Dynamic, IPA/heptane (5/1), 25° C.): 5890 µg/mL | Solubility ([5]; Dynamic, IPA/heptane (5/3), 25° C.): ~3570 µg/mL | Solubility ([5]; Dynamic, IPA, 0° C.): <1000 µg/mL | Solubility ([5]; Dynamic, IPA, 25° C.): ~8460 µg/mL | solubility in isopropanol ([5]; 25° C.): very low solubility | HPLC Purity (%) Starting [6]: 99.54% | XRPD [6]: No change | HPLC Purity (%) 60° C. [6]: 99.50% | HPLC Purity (%) Degradation [6]: −0.05% | stability relative to Amorphous Compound 1 [6]: improved stability

CCCN1CC(Oc2ccc([C@@H]3c4[nH]c5ccccc5c4C[C@@H](C)N3CC(C)(C)F)cc2)C1 [Compound 1 Form B]
form after heating (XRPD) ([7]; heating to 100° C.): became amorphous

CCCN1CC(Oc2ccc([C@@H]3c4[nH]c5ccccc5c4C[C@@H](C)N3CC(C)(C)F)cc2)C1 [Compound 1 Form A Acetonitrile Solvate]
form after heating (XRPD) ([7]; heating to 70° C. and 80° C.): became amorphous | hygroscopicity by DVS ([1]; DVS): slightly hygroscopic | water uptake (DVS) ([1]; DVS, FIG. 4): 1.9% | Form Change after DVS? [1]: same crystalline pattern after DVS

CCCN1CC(Oc2ccc([C@@H]3c4[nH]c5ccccc5c4C[C@@H](C)N3CC(C)(C)F)cc2)C1 [Amorphous Compound 1]
Solubility ([8]; aqueous with cosolvent or surfactant or cyclodextrin, 2-MeTHF/MeOH/water (60/20/20)): 106000 µg/mL (≈ 236 mM) | Solubility ([8]; aqueous with cosolvent or surfactant or cyclodextrin, ACN/water (60/40)): < 6000 µg/mL | Solubility ([8]; aqueous with cosolvent or surfactant or cyclodextrin, Dioxane/water (60/40)): < 13000 µg/mL | Solubility ([8]; aqueous with cosolvent or surfactant or cyclodextrin, MeOH/water (40/60), appeared hydrophobic): < 55000 µg/mL | Solubility ([8]; aqueous with cosolvent or surfactant or cyclodextrin, NMP/water (68/32)): 7000 µg/mL (≈ 15.6 mM) | Solubility ([8]; organic solvent or mixture, Heptane): > 191000 µg/mL | Solubility ([8]; organic solvent or mixture, IPA): 82000 µg/mL (≈ 182 mM) | Form Change after DVS? ([1]; listed as Amorphous Freebase): No | Hygroscopicity (%)* (class) [1]: Slightly | Hygroscopicity (%)* (water uptake) [1]: (0.463) % | Cmax [9, 15]: 343 ng/mL | MRT last [9, 15]: 37.8 h | half-life [9, 15]: 56.4 h | tmax ([9]; both sexes, dog, dose 5.34 mg/kg (Group 1), 7.4 mg/kg (Group 2), plasma, read-out: tmax): 3.25 h | AUC(0-inf) ([9]; both sexes, dog, plasma, dose 5.34 mg/kg (Group 1), 7.4 mg/kg (Group 2)): 8960 ng·h/mL | AUC(0-t) ([9]; both sexes, dog, plasma, dose 5.34 mg/kg (Group 1), 7.4 mg/kg (Group 2), up to 144 hours): 7460 ng·h/mL | AUClast/D ([9]; dose-normalised): 1297 kg·ng·h/mL/mg | AUC∞/D ([9]; dose-normalised): 1527 kg·ng·h/mL/mg | solubility in isopropanol ([5]; 25° C.): high solubility | solubility at 15 min ([5]; organic solvent or mixture, thermodynamic from solid, Dynamic, IPA, 25° C.): > 468000 µg/mL | HPLC Purity (%) Starting [6]: 99.23% | XRPD [6]: No change | HPLC Purity (%) 60° C. [6]: 98.94% | HPLC Purity (%) Degradation [6]: −0.29%

CCCN1CC(Oc2ccc([C@@H]3c4[nH]c5ccccc5c4C[C@@H](C)N3CC(C)(C)F)cc2)C1.O=C(O)/C=C/C(=O)O [Compound 1 Fumarate Form A Anhydrate]
Purity ([10]; HPLC after 24 hours in water at RT): ~100% | pH ([10]; supernatant after 24 hours in water at RT): 5.24 | Solubility in Water ([10]; water, RT, 24 hours, stirring at 400 rpm): 2230 µg/mL | Form Change after 24 h? ([10]; wet cake XRPD after 24 hours in water at RT): No | form after slurrying (XRPD) [11]: No change in form | hygroscopicity by DVS ([1]; DVS): non-hygroscopic | water uptake up to 80% RH ([1]; DVS isotherm at 25° C.): less than 0.20% | Form Change after DVS? [1]: No | Hygroscopicity (%)* (class) [1]: Non-hygroscopic | Hygroscopicity (%)* (water uptake) [1]: (0.108) % | Solubility [2]: 6500 µg/mL | competitive slurry outcome (XRPD) [4, 12]: a mixture of Compound 1 Fumarate Form E and Compound 1 Fumarate Form A Anhydrate remained | competitive slurry outcome (XRPD) [4, 13]: completely transformed into Compound 1 Fumarate Form E | competitive slurry outcome (XRPD) [4, 14]: a mixture of Compound 1 Fumarate Form E and Compound 1 Fumarate Form A Anhydrate remained | HPLC Purity (%) Starting [6]: 99.58% | XRPD [6]: No change | HPLC Purity (%) 60° C. [6]: 99.54% | HPLC Purity (%) Degradation [6]: −0.04% | stability relative to Amorphous Compound 1 [6]: improved stability
